pIC50: −log10 of the molar value.
Target: T1, hERG current (hERG-transfected HEK293 cells) (Homo sapiens, UniProt Q12809)
T1 construct: host or cells: HEK293
Assay: hERG whole cell patch clamp test
Type: cell-based
Details: for pIC50: whole cell patch clamp, hERG-transfected HEK293 cells
Procedure: Using human ether-a-go-go related gene (hERG)-transfected HEK293 cells (Cytomyx Limited), an influence on hERG current was examined according to the whole cell patch clamp technique. The hERG-transfected HEK293 cells were passaged using a CO2 incubator (BNA-111, TABAI ESPEC CORP.) under the set conditions of 37° C., 5% CO2, saturated humidity. Culture containers used were Collagen Type I Coated 75 cm^2 flask (4123-010, AGC TECHNO GLASS CO., Ltd.) and Collagen Type I Coated 35 mm culture dish (4000-010, AGC TECHNO GLASS CO., Ltd.). The culture medium used was E-MEM (Eagle Minimum Essential Medium (Earle's Salts, Nikken biomedical laboratory) added with 10% FCS (Fetal calf serum, BioWest, L.L.C.) and 1% MEM Non-Essential Amino Acids Solution (NEAA, Invitrogen Corporation). Geneticin for the selection of hERG gene expressing cells was added thereto to a concentration of 400 μg/mL. As the cells for the measurement, 3×10^4 hERG-transfected HEK293 cells were plated on a 35 mm culture dish 4 to 7 days before measurement of the hERG current. The culture dish produced for the measurement contained the above-mentioned culture medium without geneticin (Invitrogen Corporation).
The highest evaluation concentration of each compound was determined from the highest concentration at which precipitation was not found in the standard extracellular fluid (NaCl: 140 mmol/L, KCl: 2.5 mmol/L, MgCl2: 2 mmol/L, CaCl2: 2 mmol/L, HEPES: 10 mmol/L, glucose: 10 mmol/L (adjusted to pH 7.4 with Tris-base)). As the application method, each solution to be applied was ejected from a Y-tube having a tip diameter of about 0.25 mm, which was adjacent (about 2 mm) to the cells, and applied to the cells. The ejection rate was about 0.4 mL/min.
The experiment was performed at room temperature under a phase contrast microscope. The 35 mm culture dish plated with the cells was set on a measurement apparatus, and the standard extracellular fluid was continuously applied to the cells from the Y-tube. A glass electrode for the measurement was filled with an intracellular fluid (Potassium Gluconate: 130 mmol/L, KCl: 20 mmol/L, MgCl2: 1 mmol/L, ATP-Mg: 5 mmol/L, EGTA: 3.5 mmol/L, HEPES: 10 mmol/L (adjusted to pH 7.2 with Tris-base)). A conventional whole cell patch clamp method was applied to the cells, and the maintenance electric potential was set to −80 mV. Under a fixed electric potential, the whole cell current was amplified by an amplifier for patch clamp (AXOPATCH-200B, Axon Instruments, Inc.), and the data was loaded into a computer (IMC-P642400, Intermedical Co., Ltd.) using a data acquisition analysis software (pCLAMP 9.2, Axon Instruments, Inc.).
The measurement of the hERG current was performed in the following two steps. In both cases, the hERG current was initiated by giving a command potential (maintenance electric potential −80 mV, prepulse+20 mV, 1.5 sec, test-pulse −50 mV, 1.5 sec).
Step (1): The above-mentioned command potential was given at 0.1 Hz for 2 min.
Step (2): The above-mentioned command potential was subjected to P/3 subtraction of pCLAMP 9.2 to remove leak current. This was repeated three times and an average thereof was taken as hERG current.
Subsequent to step (1), Step (2) was performed (about 3 min), and the maximum tail current obtained by applying a test-pulse to the hERG current obtained by the method of step (2) was taken as hERG current value. Hereafter, the operations of (1) and (2) were alternately repeated until completion of the experiment and the hERG current value was measured.
Stable hERG current value was recorded three times (about 10 min), and the standard extracellular fluid was instantaneously exchanged with each application fluid. The hERG current value was measured three times (about 10 min) in the same manner during perfusion of the application fluid, and the current value obtained by the 3rd measurement was taken as hERG current value after perfusion of the application fluid. […]

T1 sequence (Q12809 whole entry): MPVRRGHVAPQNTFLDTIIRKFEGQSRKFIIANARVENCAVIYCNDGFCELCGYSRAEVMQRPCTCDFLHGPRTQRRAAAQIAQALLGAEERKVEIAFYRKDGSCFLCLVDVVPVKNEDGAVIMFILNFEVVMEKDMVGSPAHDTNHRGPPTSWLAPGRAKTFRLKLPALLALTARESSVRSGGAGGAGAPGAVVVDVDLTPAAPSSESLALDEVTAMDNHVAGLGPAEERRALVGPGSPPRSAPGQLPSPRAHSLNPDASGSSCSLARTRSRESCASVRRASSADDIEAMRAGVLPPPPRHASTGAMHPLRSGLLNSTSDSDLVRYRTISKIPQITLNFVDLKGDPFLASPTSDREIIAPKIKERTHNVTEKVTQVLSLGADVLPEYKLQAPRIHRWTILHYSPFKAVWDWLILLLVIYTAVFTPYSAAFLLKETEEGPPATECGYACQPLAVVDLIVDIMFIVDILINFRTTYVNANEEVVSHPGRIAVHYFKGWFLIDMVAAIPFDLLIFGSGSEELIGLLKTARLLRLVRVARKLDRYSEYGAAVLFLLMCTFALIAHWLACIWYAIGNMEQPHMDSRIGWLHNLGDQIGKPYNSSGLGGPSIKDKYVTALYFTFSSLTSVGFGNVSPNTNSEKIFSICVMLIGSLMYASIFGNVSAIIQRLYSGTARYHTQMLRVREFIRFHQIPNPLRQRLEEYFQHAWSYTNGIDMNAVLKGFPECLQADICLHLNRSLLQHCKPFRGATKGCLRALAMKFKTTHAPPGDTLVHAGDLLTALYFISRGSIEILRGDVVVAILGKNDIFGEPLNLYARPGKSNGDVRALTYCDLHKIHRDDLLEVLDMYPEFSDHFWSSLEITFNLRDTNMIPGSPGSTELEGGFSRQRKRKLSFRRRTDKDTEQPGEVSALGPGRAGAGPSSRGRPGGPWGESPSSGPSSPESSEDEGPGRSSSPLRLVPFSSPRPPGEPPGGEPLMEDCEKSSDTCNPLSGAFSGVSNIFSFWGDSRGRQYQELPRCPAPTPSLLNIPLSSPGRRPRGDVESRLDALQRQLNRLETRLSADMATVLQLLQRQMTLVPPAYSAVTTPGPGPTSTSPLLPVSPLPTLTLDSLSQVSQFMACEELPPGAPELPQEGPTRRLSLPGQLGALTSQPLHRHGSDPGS

CC(C)(O)CCCOc1cc(-c2cnn(CC(C)(C)O)c2)c2c(c1)[C@@](O)(C(F)(F)F)c1ccccc1-2 [compound (4), (9R)-2-(4-hydroxy-4-methylpentyloxy)-4-[1-(2-hydroxy-2-methylpropyl)-1H-pyrazol-4-yl]-9-(trifluoromethyl)-9H-fluoren-9-ol]
hERG inhibition rate (%) (concentration 10 μmol/L): 18.6% | hERG inhibition rate (%) (concentration 30 μmol/L): 44.0% | pIC50: < 4.52

CC(C)(O)COc1cc(-c2cnn(CC(C)(C)O)c2)c2c(c1)[C@@](O)(C(F)(F)F)c1ccccc1-2 [compound (2), (9R)-2-(2-hydroxy-2-methylpropoxy)-4-[1-(2-hydroxy-2-methylpropyl)-1H-pyrazol-4-yl]-9-(trifluoromethyl)-9H-fluoren-9-ol]
hERG inhibition rate (%) (concentration 10 μmol/L): 13.2% | hERG inhibition rate (%) (concentration 100 μmol/L): 67.6% | pIC50: 4.32

C[C@H](O)COc1cc(-c2cnn(CC(C)(C)O)c2)c2c(c1)[C@@](O)(C(F)(F)F)c1ccccc1-2 [compound (1), (9R)-4-[1-(2-hydroxy-2-methylpropyl)-1H-pyrazol-4-yl]-2-((2S)-2-hydroxypropoxy)-9-(trifluoromethyl)-9H-fluoren-9-ol]
hERG inhibition rate (%) (concentration 10 μmol/L): 16.2% | hERG inhibition rate (%) (concentration 100 μmol/L): 62.3% | pIC50: 4.26

Cn1cc(-c2cc(OCC(C)(C)O)cc3c2-c2ccccc2[C@]3(O)C(F)(F)F)cn1 [compound (B), (9R)-2-(2-Hydroxy-2-methylpropoxy)-4-(1-methyl-1H-pyrazol-4-yl)-9-(trifluoromethyl)-9H-fluoren-9-ol, reference compound]
hERG inhibition rate (%) (concentration 1 μmol/L): 17.4% | hERG inhibition rate (%) (concentration 10 μmol/L): 72.9%

NC(=O)Cn1cc(-c2cc(OCCC34CC5CC(CC(O)(C5)C3)C4)cc3c2-c2ccccc2[C@]3(O)C(F)(F)F)cn1 [compound (A), 2-(4-{(9R)-9-Hydroxy-2-[2-(3-hydroxyadamantan-1-yl)ethoxy]-9-(trifluoromethyl)-9H-fluoren-4-yl}-1H-pyrazol-1-yl)acetamide, reference compound]
hERG inhibition rate (%) (concentration 10 μmol/L): 11.8%

From US20150025120A1, “PYRAZOLE-ALCOHOL COMPOUNDS AND PHARMACEUTICAL USE THEREOF” (JAPAN TOBACCO INC., priority 2013, published 2015)
